The values that follow are results of earlier work, collected in patent publication US8993316B2, “Methods and compositions for gene therapy and GHRH therapy” (priority 2011, dated 2015).

Bounds are passed on as bounds.

Test in series [1]: not given
The source holds these as a separate data set.

For the molecule “GHRH: growth hormone releasing hormone, a peptide hormone”, the half-life after injection entry is given as “roughly 8 minutes”.
Take `COc1cc(CC(C)N)c(OC)cc1I` (stereo not drawn) [DOI, 2,5-dimethoxy-4-iodoamphetamine]: the rough half-life in series [1] (in vivo) is 12 to 15 h. Further, the therapeutic effect duration in series [1] (long acting) was at least 30 h.
